Among the data in patent US7709478B2, “Acylated 6,7,8,9-tetrahydro-5H-benzocycloheptenyl amines and their use as pharmaceutical agents” (sanofi-aventis Deutschland GmbH, priority 2001, dated 2010) are EC50, maximal fold induction and melting point values, retold here.

One data set deals with eNOS promoter. The data set can be described thus: Activation of eNOS transcription (eNOS promoter-luciferase reporter gene assay). The data set is classed as cell-based, human. Particulars: 18 h incubation; for EC50: EC50 of transcription induction ratio vs compound concentration, determined graphically, human endothelial cell line stably transfected with eNOS promoter-luciferase construct; for maximal fold induction: maximum transcription induction ratio (luciferase activity with compound / solvent alone), human endothelial cell line with eNOS promoter-luciferase construct, read-out: TIR(max). The procedure, abridged: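 Human endothelial cell line stably carrying a 3.5 kB eNOS promoter fragment driving firefly luciferase, treated 18 h with compound (0.5% DMSO final). Luciferase induction relative to solvent gave transcription induction ratio versus concentration; EC50 determined graphically.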
(In general: Reporter assays use an easily measured gene product as a stand-in for the process of interest.)

Turning to `O=C(NC1CCCc2ccccc2C1)c1ccc(F)cc1` (stereo not shown) [Compound 1, 4-FLUORO-N-(6,7,8,9-TETRAHYDRO-5H-BENZOCYCLOHEPTEN-6-YL)-BENZAMIDE], the melting point is 165 °C. Besides, in the data set on eNOS promoter, the EC50 turned out to be 20 nM and the maximal fold induction was 3.3.

`O=C(NC1CCCc2ccccc2C1O)c1ccc(F)cc1` (stereo not shown) [Compound 2, 4-FLUORO-N-(5-HYDROXY-6,7,8,9-TETRAHYDRO-5H-BENZOCYCLOHEPTEN-6-YL)-BENZAMIDE] yielded a melting point of 156 °C. Moreover, in the data set on eNOS promoter, the concentration giving a half-maximal response (EC50) was 6000 nM and the maximal fold induction is 2.2.

In turn, `Cc1nc2ccc(C(=O)N[C@H]3CCCc4ccccc4C3)cc2[nH]1` [Compound 7, (S)-2-METHYL-3H-BENZOIMIDAZOLE-5-CARBOXYLIC ACID (6,7,8,9-TETRAHYDRO-5H-BENZOCYCLOHEPTEN-6-YL)-AMIDE] came in with a melting point of 206 °C. In the data set with eNOS promoter, the EC50 worked out at 75 nM and the maximal fold induction amounted to 3.3.

In the case of `O=C(NC1CCCc2ccccc2C1)c1nc(Cl)ccc1Cl` (stereo not shown) [Compound 141, 3,6-DICHLORO-PYRIDINE-2-CARBOXYLIC ACID (6,7,8,9-TETRAHYDRO-5H-BENZOCYCLOHEPTEN-6-YL)-AMIDE], in the data set with eNOS promoter, the concentration giving a half-maximal response (EC50) is 250 nM and the maximal fold induction worked out at 3.2.

Take `O=C(NC1CCCc2ccccc2C1)c1cc(NCc2ccccc2)ccn1` (stereo not shown) [Compound 142, 4-BENZYLAMINO-PYRIDINE-2-CARBOXYLIC ACID (6,7,8,9-TETRAHYDRO-5H-BENZOCYCLOHEPTEN-6-YL)-AMIDE]: in the data set with eNOS promoter, the concentration giving a half-maximal response (EC50) turned out to be 3000 nM and the maximal fold induction was found to be 2.5.

For the compound `Nc1cccnc1C(=O)NC1CCCc2ccccc2C1` (stereo not shown) [Compound 144, 3-AMINO-PYRIDINE-2-CARBOXYLIC ACID (6,7,8,9-TETRAHYDRO-5H-BENZOCYCLOHEPTEN-6-YL)-AMIDE], in the data set with eNOS promoter, the EC50 came to 10 nM and the maximal fold induction was determined as 2.9.

As for `CS(=O)(=O)Nc1cccnc1C(=O)NC1CCCc2ccccc2C1` (stereo not shown) [Compound 145, 3-METHANESULFONYLAMINO-PYRIDINE-2-CARBOXYLIC ACID (6,7,8,9-TETRAHYDRO-5H-BENZOCYCLOHEPTEN-6-YL)-AMIDE], in the data set with eNOS promoter, the EC50 is 3800 nM and the maximal fold induction worked out at 1.6.

In the case of `Nc1ccnc(C(=O)NC2CCCc3ccccc3C2)c1` (stereo not shown) [Compound 146, 4-AMINO-PYRIDINE-2-CARBOXYLIC ACID (6,7,8,9-TETRAHYDRO-5H-BENZOCYCLOHEPTEN-6-YL)-AMIDE], in the data set with eNOS promoter, the EC50 stood at 2400 nM and the maximal fold induction was determined as 2.9.

A word on the EC50: it is the concentration at which the effect is half-maximal. The term melting point denotes the temperature, or range, at which the solid turns liquid.
